Series [1] has as its target mGluR2 in rat brain (Rattus norvegicus, UniProt P31421). In words: In vivo PET imaging of [11C]1 in rat brain with blocking studies.
Method: The rats were adjusted into the scanner for imaging position (Triumph II Preclinical Imaging System, Trifoil Imaging, LLC, Northridge, Calif.). The vital signs such as heart rate and/or breathing were monitored throughout the imaging. […] The “cold” compounds were administered (i.v., 4 mg/kg) 10 min before the radioactivity. CT scan was performed after every PET imaging study to obtain anatomical information and correction for attenuation. […] The ROIs, i.e., whole brain, thalamus, cerebellum, striatum, and cortex, were drawn onto coronal PET slices according to the brain outlines as derived from the rat brain atlas and corresponding TACs (time-activity curves) were created by PMOD 3.2 (PMOD Technologies Ltd., Zurich, Switzerland). Percent changes between the control and blocking studies were calculated in the selected brain areas at the 10-30 min time window after injection of [^11C]1.
The characterization of [11C]1 was conducted with rat (male Sprague-Dawley) studies. […] The rats were adjusted into the scanner for imaging position (Triumph II, Trifoil Imaging Inc, Northridge, Calif.). The vital signs such as heart rate and/or breathing were monitored throughout the imaging. […] When the blocking studies were done the imaging procedures started with the baseline study using [^11C]1 followed by 2 hrs later the blocking agent and another administration of [^11C]1 in the same animal. The blocking agent was administered intravenously 2 min before injection of the second [^11C]1 if self-blocking, 10 min before [^11C]1 if blocking was with JNJ The dynamic PET data was acquired starting from the injection of radioactivity and continued for 60 min. After the dynamic PET data acquisition CT imaging was done to obtain data for attenuation as well as anatomical information of the brain. […] Percent changes between the control and blocking studies were calculated in all brain areas. […]
A short description of series [2]: Ex vivo whole body biodistribution of [11C]1. It counts as in vivo, Sprague Dawley rats. Here is the method:
The quantitative biodistribution of [^11C]1 was done using 16 healthy Sprague Dawley rats (weight 330-370 g). After anesthetization (2% isoflurane with oxygen flow of 1.5 L/min) the rats were administrated with the [^11C]1 (30-42 MBq (0.81-1.14 mCi) using tail vein injection and sacrificed by decapitation at the time points 5, 20, 30 or 40 min after administration of the radioactivity. The tissue samples including blood, midbrain, cerebellum, cortex, lung, heart, liver, spleen, kidney and muscle were rapidly collected into pre-weighted gamma-counting tubes and measured with standards (samples of [^11C]1) using PerkinElmer Wizard2 2480 gamma-counter. Tubes were weighted, and the net mass of the tissue samples was determined and the percent of the injected radioactivity (% ID/g) in the samples was calculated.
The ex vivo biodistribution was performed in 16 normal male Sprague Dawley rats after intravenous injection of [^11C]1 at several time points (5, 20, 30 and 40 min). The uptake value is expressed in the unit of % ID/g. […] The highest accumulation was measured in the liver (2.73±0.02% ID/g) followed by kidney (1.05±0.07% ID/g), spleen (0.67±0.05% ID/g), lung (0.59±0.04% ID/g), and heart (0.58±0.05% ID/g). […] The average accumulation of [^11C]1 in the rat brain at 5 min was (0.49±0.07% ID/g) (FIG. 22).

Series [3] deals with recombinant human P-gp (Homo sapiens, UniProt P08183). In words: P-gp ATPase assay (Pgp-Glo assay). It counts as biochemical. To be noted: human P-gp membrane, verapamil as positive control. Here is the method: P-gp ATPase activity was measured with the Pgp-Glo™ assay system with human P-gp membrane by following the manufacturer's instructions (Promega, Co. USA). The assay relies on the ATP dependence of the light-generating reaction of firefly luciferase. Briefly, 25 μg of P-gp membrane was incubated at 37° C. with one of these samples including Na3VO4 (100 μM), solvent control (0.1% DMSO), quercetin (100 μM), the test compound (200 μM), verapamil (100 μM), verapamil (100 μM) plus the test compound (100 μM). The ATPase reaction was initiated by addition of MgATP (5 mM) and followed by incubation for 40 min at 37° C. The reaction was stopped, and the remaining unmetabolized ATP was detected as a luciferase-generated luminescence signal by addition of ATP detection reagent. Following a room-temperature signal-stabilization period (20 min), luminescence was read on a Veritas microplate luminometer (Tuner Designs, San Francisco, Calif.). P-gp ATPase activity was presented as a drop-in luminescence of samples compared to that treated with Na3VO4.
We further evaluated compounds 1, 2, and 7 using Pgp-Go™ assay to investigate whether the brain penetration will be affected by P-glycoprotein (P-gp) efflux transporter. The Pgp-Go™ assay [see ref. 63] was carried out on recombinant human P-gp in a cell membrane fraction. […]

Series [4] is described as follows: Determination of Log P. Type of series: physicochemical. The settings on record: experimental lipophilicity. Here is the method:
Determination of Log P The Log P was determined using a reversed-phase HPLC method. First, seven reference compounds were examined to obtain the linear regression of the log P against the log of capacity factors by the expression: log Pow=a+b*log k. The Log P of these reference compounds was already been determined. The capacity factor k was calculated by the expression: k=(tR−t0)/t0. The retention time tR of test compound was determined on the HPLC (Agilent 1260 infinity II LC System, XTerra™ MS Cis 5μ 2.1×250 mm, methanol/water=75/25, 0.25 mL/min). The dead-time to was measured by using thiourea. The linear regression equation of the Log P against the log of capacity factors was generated in Excel: log Pow=3.049+2.429*log k, where R^2 was 0.9964. The retention time of compound 1, 2, and 7 was also determined on the HPLC under the same condition and each test was repeated three times (FIG. 5).
(§1) The experimental lipophilicity was measured by using liquid-liquid partition between n-octanol and water (“shake-flask method”) [see ref. 54]. […] The plasma protein binding comprises compounds' binding to albumin, α1-acid glycoprotein and lipoproteins once delivered to the bloodstream. This property was evaluated for compounds 1 and 2 by equilibrium dialysis [see ref. 56], where two chambers were separated by a dialysis membrane (MWCO 8 kD). The plasma protein bindings of 1 and 2 are 87.2% and 88.7%, respectively (see FIGS. 20 and 6). Therefore, the high plasma free fraction of compounds 1 and 2 (>10%) would allow enough free drug concentration in blood stream to reach the brain targets.

Series [5] is described as follows: Plasma stability in rat serum. It counts as in vitro ADME. The settings on record: 37° C., diltiazem as positive control. The method, then:
Compound stability in rat serum was examined using a published method. [See ref. 57] Rat serum (100 μL, Abeam, Inc, No. ab7488) and test compound or control compound (2.5 μL, 1 mM in DMSO) was added to the individual tube. The tube was vortexed and incubated at 37° C. During the incubation, aliquots of 50 μL samples were quenched with ice-cold acetonitrile at 0, 15, 30, 60, and 120 min time points, respectively. After mixing, the quenched samples were centrifuged, and the supernatant was withdrawn for analysis by HPLC (Agilent 1260 infinity II LC System, XTerra™ MS C18, 5μ, 2.1×250 mm, 20 mM ammonium formate (A)/acetonitrile (B), 0.25 mL/min, gradient of 5% to 100% B). The samples were assayed at least three times. Compound 1-OH was used as internal standard while diltiazem was used as a positive control. The percentage remaining was calculated by (peak area at the specific time point)/(peak area at 0 min)×100% (FIG. 7).
(§2) The in vitro plasma and liver microsomal stability of 1 and 2 were studied by incubating the test compounds in rat serum and rat liver microsomes as well as NADPH cofactor, respectively, using previously published methods [see refs. 57, 58]. […] The solution stability of 1 was evaluated with buffer solutions at pH 5.0, 7.4 and 9.4, respectively (FIGS. 10 and 20) [see refs. 61].

Series [6] deals with T1, mGluR2 (Homo sapiens, UniProt Q14416).
T1 construct: expressed in transfected cells
To be noted: calcium flux, Gα15 or Gα16 forced coupling; read-out: previously reported mGluR2 EC50; cited from earlier work.

The nature of series [7]: Plasma protein binding assay (equilibrium dialysis, RED device). It counts as in vitro ADME. The settings on record: rat plasma. Here is the method:
Disposable RED device inserts (product 90006) were from Thermos Scientific (Waltham, Mass.). Each insert was made of two side-by-side chambers separated by a vertical cylinder of dialysis membrane (MWCO 8,000) validated for minimal non-specific binding. A stock solution of the test compound in DMSO was spiked into the rat plasma to reach a concentration of 10 μM. 400 μL of sample solution was placed into the sample chamber of the RED device, and 600 μL of phosphate-buffered saline (PBS) was added to the buffer chamber of the RED device. Samples were prepared in triplicates. The plate was covered with aluminum sealing cover and incubated at 37° C. on an orbital shaker at approximately 200 rpm for 5 h. After incubation, 300 μL of post-dialysis samples from the buffer and sample chambers were transferred to different microcentrifuge tubes. To the buffer sample was added 300 μL of plasma, and an equal volume of buffer was added to the collected plasma sample. 600 μL of cold acetonitrile was added to the samples, and the samples were vortexed and incubated for 30 min on ice and then were centrifuged at 14000 rpm for 10 min. Supernatant was transferred to vial for HPLC analysis (XTerra™ MS C18 5μ, 2.1×250 mm column; Gradient elution from 5% to 90% B in 30 min; 0.1 M ammonium formate in water (A) and acetonitrile (B); UV 254 nm; 100 μL of injection volume). The percentage of the test bound compound was calculated as % Free=(Concentration in buffer chamber/Concentration in plasma chamber)×100%; % Bound=100%−% Free (FIG. 6).
as §1

Series [8] can be described thus: Microsomal stability in rat liver microsomes. Type of series: in vitro ADME. The settings on record: rat liver microsomes with NADPH, ML128 as positive control. The method, then:
Compound stability in rat liver microsomal was tested using a published method. [see refs. 57, 58] In a vial 1.5 μL of test compound (1 mM in DMSO stock solution) was mixed with 432 μL of PBS (50 mM, pH 7.4). The mixture was kept at 37° C. for 10 min before adding 13 μL of Sprague-Dawley rat liver microsomes (Sigma-Aldrich, No. M9066). The vial was vortexed and shaken at 37° C. for 5 min, followed by addition of 50 μL of NADPH (10 mM in PBS stock solution) to start the reaction. The mixture was incubated at 37° C. for 0, 5, 15, 30, 45 min, respectively, and quenched by addition of 250 μL of ice-cold acetonitrile and 3 μL of the internal standard (0.5 mM in DMSO). The quenched solutions were centrifuged at 10,000 g for 15 min. The supernatant was collected and quantitated by RP-HPLC (Phenomenex Luna® column 5 μC18, 100 Å, 250×4.6 mm; 0.7 mL/min, 15 min, Acetonitrile/water/0.1% FA). The procedure was repeated three times for each compound. Compound 1-OH was used as internal standard and compound ML128 served as positive control. The percentage of remaining intact test-compound was calculated by (peak area at the specific time point)/(peak area at 0 min)×100%. Each procedure was repeated three times (FIGS. 8 and 9). For FIG. 8, the natural logarithm (In) of peak area ratio (test compound peak area/internal standard peak area) was plotted against time and the gradient of the line was determined. Subsequently, the half-life (t1/2) min was calculated as 0.693/k, where the elimination rate constant (k) equals to negative gradient. V (μL/mg) was obtained as a ratio of volume of incubation (μL)/protein in the incubation (mg). Finally, the intrinsic clearance (CLint) (μL/min/mg protein) was calculated as V×0.693/t1/2.
as §2

mGluR2 in rat brain, sequence (P31421 19-872): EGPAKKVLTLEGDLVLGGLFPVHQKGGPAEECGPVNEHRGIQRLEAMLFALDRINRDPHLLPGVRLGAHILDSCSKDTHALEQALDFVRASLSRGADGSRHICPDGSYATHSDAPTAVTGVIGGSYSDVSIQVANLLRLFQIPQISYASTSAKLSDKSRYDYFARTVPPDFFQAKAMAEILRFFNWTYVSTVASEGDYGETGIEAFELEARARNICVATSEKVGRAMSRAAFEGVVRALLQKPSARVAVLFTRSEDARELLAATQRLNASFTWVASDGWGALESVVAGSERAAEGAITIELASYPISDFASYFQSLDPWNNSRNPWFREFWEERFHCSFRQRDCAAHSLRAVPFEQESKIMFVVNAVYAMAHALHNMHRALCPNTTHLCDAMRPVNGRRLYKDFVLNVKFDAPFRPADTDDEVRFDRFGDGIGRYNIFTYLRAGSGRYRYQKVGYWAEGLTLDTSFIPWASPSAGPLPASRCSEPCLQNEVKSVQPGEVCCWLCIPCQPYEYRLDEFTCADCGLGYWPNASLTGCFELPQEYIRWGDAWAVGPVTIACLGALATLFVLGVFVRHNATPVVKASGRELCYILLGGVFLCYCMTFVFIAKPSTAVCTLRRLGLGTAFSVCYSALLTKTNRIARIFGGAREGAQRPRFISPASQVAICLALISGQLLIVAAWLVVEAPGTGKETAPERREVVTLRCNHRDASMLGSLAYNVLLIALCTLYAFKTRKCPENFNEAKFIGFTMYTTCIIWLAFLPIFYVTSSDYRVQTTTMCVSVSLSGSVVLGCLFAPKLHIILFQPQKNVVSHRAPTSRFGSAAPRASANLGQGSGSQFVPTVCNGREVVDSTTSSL
T1 sequence (Q14416 19-872): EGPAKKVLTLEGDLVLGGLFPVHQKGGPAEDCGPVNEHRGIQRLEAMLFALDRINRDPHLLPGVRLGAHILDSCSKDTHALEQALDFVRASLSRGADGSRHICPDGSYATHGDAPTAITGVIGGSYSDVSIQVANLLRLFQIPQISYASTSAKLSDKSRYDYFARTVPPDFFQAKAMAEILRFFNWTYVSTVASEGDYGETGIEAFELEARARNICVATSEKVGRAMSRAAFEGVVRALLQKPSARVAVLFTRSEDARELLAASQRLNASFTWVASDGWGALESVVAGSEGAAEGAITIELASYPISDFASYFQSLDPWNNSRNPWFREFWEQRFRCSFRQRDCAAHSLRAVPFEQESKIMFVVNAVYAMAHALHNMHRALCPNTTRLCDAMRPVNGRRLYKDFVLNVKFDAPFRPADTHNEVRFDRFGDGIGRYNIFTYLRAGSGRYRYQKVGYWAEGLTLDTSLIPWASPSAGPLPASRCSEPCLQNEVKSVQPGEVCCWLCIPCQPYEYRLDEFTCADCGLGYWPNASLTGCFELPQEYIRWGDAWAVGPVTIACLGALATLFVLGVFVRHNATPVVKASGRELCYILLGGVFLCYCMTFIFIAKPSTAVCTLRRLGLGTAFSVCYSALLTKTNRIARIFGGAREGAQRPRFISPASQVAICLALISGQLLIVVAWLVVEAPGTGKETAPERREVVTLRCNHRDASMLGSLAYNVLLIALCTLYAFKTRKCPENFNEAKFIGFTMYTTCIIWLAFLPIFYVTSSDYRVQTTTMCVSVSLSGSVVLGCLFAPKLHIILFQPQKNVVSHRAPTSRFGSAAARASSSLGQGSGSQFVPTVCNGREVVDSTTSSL
recombinant human P-gp, sequence (P08183 whole entry): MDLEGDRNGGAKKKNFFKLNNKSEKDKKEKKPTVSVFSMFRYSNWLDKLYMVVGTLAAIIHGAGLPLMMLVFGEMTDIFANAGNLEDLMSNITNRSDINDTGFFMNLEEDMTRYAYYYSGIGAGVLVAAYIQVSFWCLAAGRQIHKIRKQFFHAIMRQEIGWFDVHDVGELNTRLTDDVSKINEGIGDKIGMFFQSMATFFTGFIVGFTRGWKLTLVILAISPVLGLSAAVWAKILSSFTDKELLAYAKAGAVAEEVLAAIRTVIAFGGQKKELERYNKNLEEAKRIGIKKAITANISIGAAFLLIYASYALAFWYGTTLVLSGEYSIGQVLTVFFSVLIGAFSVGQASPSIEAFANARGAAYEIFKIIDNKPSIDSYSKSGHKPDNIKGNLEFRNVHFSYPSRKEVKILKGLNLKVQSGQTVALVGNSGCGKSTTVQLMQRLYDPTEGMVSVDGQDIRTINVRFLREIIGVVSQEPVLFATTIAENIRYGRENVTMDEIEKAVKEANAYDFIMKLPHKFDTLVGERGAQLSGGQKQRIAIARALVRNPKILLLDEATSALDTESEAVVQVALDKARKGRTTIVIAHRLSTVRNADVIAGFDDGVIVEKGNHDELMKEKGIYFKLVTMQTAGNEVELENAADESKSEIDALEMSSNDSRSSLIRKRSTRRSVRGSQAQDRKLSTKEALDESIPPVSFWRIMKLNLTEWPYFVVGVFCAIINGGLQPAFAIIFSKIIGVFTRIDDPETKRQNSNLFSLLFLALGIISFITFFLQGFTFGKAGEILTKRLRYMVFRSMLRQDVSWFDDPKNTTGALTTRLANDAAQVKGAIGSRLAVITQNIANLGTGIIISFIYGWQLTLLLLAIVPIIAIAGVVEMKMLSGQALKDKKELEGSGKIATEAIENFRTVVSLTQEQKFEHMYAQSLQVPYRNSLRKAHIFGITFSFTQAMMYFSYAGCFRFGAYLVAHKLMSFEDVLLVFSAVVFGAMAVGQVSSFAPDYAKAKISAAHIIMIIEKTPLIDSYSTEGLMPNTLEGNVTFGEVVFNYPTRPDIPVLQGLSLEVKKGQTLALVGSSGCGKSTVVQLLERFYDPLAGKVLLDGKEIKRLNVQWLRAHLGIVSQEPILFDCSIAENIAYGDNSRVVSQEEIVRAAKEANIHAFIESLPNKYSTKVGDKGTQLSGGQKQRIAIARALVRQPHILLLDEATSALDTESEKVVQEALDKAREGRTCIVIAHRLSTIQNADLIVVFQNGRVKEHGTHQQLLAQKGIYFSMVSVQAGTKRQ

`Fc1ccc(N2CCN(Cc3ccn4c(CC5CC5)nnc4c3C(F)(F)F)CC2)c(F)c1` [Compound 3, 8-Trifluoromethyl-3-cyclopropylmethyl-7-[(4-(2,4-difluorophenyl)-1-piperazinyl)methyl]-1,2,4-triazolo[4,3-a]pyridine, reference compound]: the “decrease of [11C]1 uptake in different brain areas after pretreatment” value in series [1] (4 mg/kg i.v. 10 min before [11C]1, 10-30 min time window) was 28-37%.
In series [1] (rat PET, n=9), `Cn1c(CN2CCC(c3ccc(C(F)(F)F)cc3O[11CH3])CC2)nc2ncccc21` [[^11C]1] showed an SUVmax in brain of 1.8±0.2. Also, the “maximum SUV (time-activity curves)” value in series [1] (rat PET, thalamus at 2 min post-injection) is 2.3. In addition, the “average accumulation in the rat brain” value in series [2] (i.v. [11C]1, brain at 5 min) is reported as 0.49±0.07 % ID/g. Further, the “highest accumulation in heart” value in series [2] (rat, i.v. [11C]1, heart) is given as 0.58±0.05 % ID/g. Further, the “highest accumulation in kidney” value in series [2] (rat, i.v. [11C]1, kidney) was 1.05±0.07 % ID/g. In series [2] (rat, i.v. [11C]1, liver), the “highest accumulation in liver” value turned out to be 2.73±0.02 % ID/g. Besides, in series [2] (rat, i.v. [11C]1, lung (maximum at 20 min)), the “highest accumulation in lung” value amounted to 0.59±0.04 % ID/g. Further, the “highest accumulation in spleen” value in series [2] (rat, i.v. [11C]1, spleen) was 0.67±0.05 % ID/g.
Take `COc1cc(C(F)(F)F)ccc1OC[C@@H]1[C@H]2CN(Cc3nc4ncccc4n3C)C[C@@H]12` [Compound 7]: the “P-gp substrate assessment / P-gp ATPase activity” value in series [3] is on record as “a potential P-gp substrate”. This molecule yielded a log P in series [4] (n-octanol/water) of 3.3.
Take `COc1cc(C(F)(F)F)ccc1C1CCN(Cc2nc3nccc4c3n2CCC4)CC1` [Compound 2]: the “stability in rat plasma” value in series [5] is “much more stable than diltiazem”. Moreover, in series [6], the EC50 was 5 nM. The “Log P” value in series [4] was 3.86. For the same molecule, in series [7] (equilibrium dialysis, 10 μM), the plasma protein binding was determined as 88.7%. For the same molecule, in series [7] (read-out: plasma free fraction), the fraction unbound at 5 h, 10 μM is over 0.1. Further, the “microsomal stability” value in series [8] is “reasonable microsomal stability”.

Source of the values: patent US20210246140A1, “MODULATORS OF METABOTROPIC GLUTAMATE RECEPTOR 2” (The General Hospital Corporation, priority 2020, published 2021).
